Experimental data: patent US20250188080A1, “IMIDAZOLONYLQUINOLINE COMPOUNDS AND THERAPEUTIC USES THEREOF” (Merck Patent GmbH, priority 2019, published 2025)

How the values were obtained:
[1] = Dynamic vapor sorption (DVS) water uptake; assay type: physicochemical
Procedure: DCS water vapour sorption isotherms were acquired on DVS instrument with microbalance and incubator (DVS-Intrinsic, Surface Measurement Systems, SMS). Powder samples were accurately weighed into disposable Al pans and placed on the sample position of the DVS instrument. A nitrogen overall follow rate of 200 mL/min (combined dry and humid stream) was used for humidification. […] For all RH steps, an equilibrium condition of dm/dt≤0.0005 wt %/min was used, with a minimum RH step time of 10 minutes and a maximum RH step time (timeout) of 360 minutes.

[2] = Non-sink dissolution in FaSSIF (pH 6.5); assay type: physicochemical; settings: FaSSIF buffer solution (pH 6.5), FIG. 9
Procedure: Non-sink dissolution profiles for solid-state forms were acquired using shaked-flask method with excess solid material in FaSSIF medium (pH 6.5) with time-resolved sampling for determination of dissolved quantities of API.
Approx. 10-20 mg of solid sample were weighed into glass vials. 7 ml of respective medium (prewarmed to 37° C.) were added and the suspension was shaken at 450 rpm at 37° C. After 5 min, 10 min, 15 min, 30 min, 60 min, 120 min, 24 h and 48 h, […] was withdrawn and filtered through a 0.2 μm syringe filter. Clear filtrate was analysed by HPLC after suitable dilution to measure the amount of compound/form (may also be referred to as API) dissolved.
FaSSIF: 3 mM sodium taurocholate; 0.75 mM lecithin; 105.9 mM sodium chloride; 28.4 mM monobasic sodium phosphate and 8.7 mM sodium hydroxide, pH 6.5
Levels of dissolved compound/form were analysed by HPLC, with the following conditions: • Column: Chromolith RP-18e 100-3 mm • Solvent A: water/formic acid (999:1; v/v) • Solvent B: acetonitrile/formic acid (999:1; v/v) • Injection volume: 5 μL • Column temperature: 37° C. • HPLC-Gradient: […]

Row | SMILES | Initial dissolution rate compared with parent Compound 1 [2] | other results
1 | COc1cc2ncc3c(c2cc1-c1cn(C)nc1C)n(-c1c(F)cncc1OC)c(=O)n3C [Form A2] |  | Water adsorbed (DVS) ([1]; up to a relative humidity of 100%, 25° C.): < 2%
2 | COc1cc2ncc3c(c2cc1-c1cn(C)nc1C)n(-c1c(F)cncc1OC)c(=O)n3C.O=S(=O)(O)c1ccc2ccccc2c1 [Compound 1 napsylate] | faster initial dissolution rate | 
3 | COc1cc2ncc3c(c2cc1-c1cn(C)nc1C)n(-c1c(F)cncc1OC)c(=O)n3C.O=C(O)/C=C/C(=O)O [Compound 1 fumarate] | faster initial dissolution rate | Hygroscopic properties [1]: absence of hygroscopic properties
4 | COc1cc2ncc3c(c2cc1-c1cn(C)nc1C)n(-c1c(F)cncc1OC)c(=O)n3C [Form A3] |  | Water adsorption (DVS), in words ([1]; up to a relative humidity of about 70%, 25° C.): very little water adsorption
5 | COc1cc2ncc3c(c2cc1-c1cn(C)nc1C)n(-c1c(F)cncc1OC)c(=O)n3C.O=S(=O)(O)CCS(=O)(=O)O [Compound 1 edisylate] | faster initial dissolution rate | 
